Measurements: patent US11401277B2, “Anti-bacterial heterocyclic compounds and their synthesis” (Bugworks Research, Inc., priority 2017, dated 2022)
Values after ≈ are worked out from the molar mass of the structure shown. Like-named read-outs stand apart in the source and are kept apart here.

Assays:
[1] = In vivo pharmacokinetic (PK) studies in rats; parameters: species or system Sprague-Dawley (SD) rats; conditions: for Cmax / Vd / bioavailability / AUC(0-inf) / AUC(0-t) / Tmax / half-life / clearance: Sprague-Dawley, rat, plasma; for Vd: iv; for bioavailability: po, read-out: Bioavailability* (F, %); for clearance: read-out: CLp (converted)
P. aurigenosa ATCC 27853 = test: MIC studies in LB Media; type: cell-based; conditions: Pseudomonas aeruginosa, ATCC27853, read-out: Minimum Inhibitory Concentration in LB Media, P. ae
Method: (§1) Bacterial cultures that were stored as glycerol stocks at −80° C. were sub cultured on LB agar plates to obtain isolated colonies. A single colony of each strain was cultured in LB broth. The cultures were incubated at 37° C., 200 rpm till they reach an optical density (OD at 600 nm) of 0.8 to 1. […] Test compounds were dissolved in dimethyl sulfoxide (DMSO) to a stock concentration of 4 mg/ml. A two-fold dilution series of this DMSO stock was prepared in a 96 well V bottom microtitre plate from rows A to H. A 3 μL volume of these dilutions were transferred to a 96-well flat bottom microtitre assay plate. Controls to monitor the effects of DMSO and media sterility were included. Each well was inoculated with 150 μL of the above diluted culture. The plates were incubated at 37° C. overnight in a humidified incubator. The following morning, the plates were read using a Spectrophotometer at 600 nm wavelength.

E. coli ATCC 25922 = test: MIC studies in LB Media; type: cell-based; conditions: Escherichia coli, ATCC25922, read-out: Minimum Inhibitory Concentration in LB Media, E. co
Method: as §1

S. aureus ATCC 29213 = test: MIC studies in LB Media; type: cell-based; conditions: Staphylococcus aureus, ATCC29213, MIC = 90% inhibition of growth, read-out: Minimum Inhibitory Concentration in LB Media, S. au
Method: as §1

[2] = system: Enterobacter cloacae ATCC 13047; test: MIC studies in LB Media; type: cell-based; conditions: ATCC13047, read-out: Minimum Inhibitory Concentration in LB Media, E. cl
Method: as §1

K. pneumoniae ATCC 13883 = test: MIC studies in LB Media; type: cell-based; conditions: Klebsiella pneumoniae, ATCC13883, read-out: Minimum Inhibitory Concentration in LB Media, K. pn
Method: as §1

[3] = system: Citrobacter freundii ATCC 43864; test: MIC studies in LB Media; type: cell-based; conditions: ATCC43864, read-out: Minimum Inhibitory Concentration in LB Media, C. fr
Method: as §1

[4] = system: Morganella morganii ATCC 25830; test: MIC studies in LB Media; type: cell-based; conditions: ATCC25830, read-out: Minimum Inhibitory Concentration in LB Media, M. mo
Method: as §1

[5] = system: Proteus mirabilis ATCC 43071; test: MIC studies in LB Media; type: cell-based; conditions: ATCC43071, read-out: Minimum Inhibitory Concentration in LB Media, P. mi
Method: as §1

A. baumannii ATCC 19606 = test: MIC studies in LB Media; type: cell-based; conditions: Acinetobacter baumannii, ATCC19606, read-out: Minimum Inhibitory Concentration in LB Media, A. ba
Method: as §1

E. faecalis ATCC 29212 = test: MIC studies in LB Media; type: cell-based; conditions: Enterococcus faecalis, ATCC29212, read-out: Minimum Inhibitory Concentration in LB Media, E. fa
Method: as §1

[6] = system: A. baumanni clinical strains; test: Susceptibility (MIC50 and MIC90 determination) studies, clinical strains; type: cell-based; conditions: CLSI
E. coli clinical strains = test: as above; type: cell-based; conditions: CLSI
[7] = system: E. cloacae clinical strains; test: as above; type: cell-based; conditions: CLSI
[8] = system: P. aurigenosa clinical strains; test: as above; type: cell-based; conditions: CLSI
[9] = Escherichia coli, E. coli clinical strains

Cn1c(=O)ccc2ccc(F)c(OCCNC[C@H]3CN(c4cnc5c(n4)NC(=O)CO5)C(=O)O3)c21 [Compound 2, (S)-6-(5-(((2-((7-fluoro-1-methyl-2-oxo-1,2-dihydroquinolin-8-yl)oxy)ethyl)amino)methyl)-2-oxooxazolidin-3-yl)-2H-pyrazino[2,3-b][1,4]oxazin-3(4H)-one]
AUC and Cmax versus dose (in words) ([1]; IV infusion and Oral dosing at 5, 10, 30 & 100 mg/kg doses in SD rats): Dose proportional increase | clearance (in words) ([1]; SD rats): moderate | half life (in words) ([1]; SD rats): moderate | oral bioavailability (in words) ([1]; SD rats): good | volume of distribution (in words) ([1]; SD rats): low | Cmax ([1]; 5 mg/kg, IV (1 h infusion), male SD rats): 2800 ± 970 ng/mL | Cmax ([1]; 10 mg/kg PO, male SD rats): 2580 ± 75 ng/mL | Cmax ([1]; 30 mg/kg, IV (1 h infusion), male SD rats): 25200 ± 610 ng/mL | Cmax ([1]; 100 mg/kg, IV (1 h infusion), male SD rats): 93400 ± 4400 ng/mL | Cmax ([1]; 150 mg/kg, IV (1 h infusion), male SD rats): 112000 ± 7580 ng/mL | Vd ([1]; male, 5 mg/kg, IV, read-out: Vd): 6.4 ± 1.07 L/kg | Vd ([1]; male, 5 mg/kg, IV, read-out: Vss): 1.09 ± 0.13 L/kg | Vd ([1]; male, 30 mg/kg, IV, read-out: Vd): 4.94 ± 1.8 L/kg | Vd ([1]; male, 30 mg/kg, IV, read-out: Vss): 0.62 ± 0.05 L/kg | Vd ([1]; male, 100 mg/kg, IV, read-out: Vd): 5.57 ± 0.56 L/kg | Vd ([1]; male, 100 mg/kg, IV, read-out: Vss): 0.69 ± 0.02 L/kg | Vd ([1]; male, 150 mg/kg, IV, read-out: Vd): 5.38 ± 1.1 L/kg | Vd ([1]; male, 150 mg/kg, IV, read-out: Vss): 0.73 ± 0.07 L/kg | bioavailability ([1]; male, 10 mg/kg): 33.3 ± 3.1% | bioavailability ([1]; male, 30 mg/kg): 66.8 ± 14.4% | bioavailability ([1]; male, 100 mg/kg): 38.4 ± 12.4% | bioavailability ([1]; male, 300 mg/kg): 24.2 ± 15.6% | AUC(0-inf) ([1]; male, 5 mg/kg, IV): 1870 ± 350 ng·h/mL | AUC(0-t) ([1]; male, 5 mg/kg, IV): 1870 ± 350 ng·h/mL | Tmax ([1]; male, 5 mg/kg, IV): 45.6 ± 1.2 min | half-life ([1]; male, 5 mg/kg, IV): 91.8 ± 4.2 min | clearance ([1]; male, 5 mg/kg, IV): 45.7 mL/min/kg | AUC(0-inf) ([1]; male, 10 mg/kg PO): 1240 ± 100 ng·h/mL | Tmax ([1]; male, 10 mg/kg PO): 15 min | half-life ([1]; male, 10 mg/kg PO): 110 ± 9 min | AUC(0-inf) ([1]; male, 30 mg/kg, IV): 21800 ± 150 ng·h/mL | AUC(0-t) ([1]; male, 30 mg/kg, IV): 21780 ± 150 ng·h/mL | Tmax ([1]; male, 30 mg/kg, IV): 60 min | half-life ([1]; male, 30 mg/kg, IV): 147 ± 46.8 min | clearance ([1]; male, 30 mg/kg, IV): 23 mL/min/kg | AUC(0-inf) ([1]; male, 30 mg/kg, PO): 7540 ± 1620 ng·h/mL | Cmax ([1]; male, 30 mg/kg, PO): 8500 ± 2400 ng/mL | Tmax ([1]; male, 30 mg/kg, PO): 30 min | half-life ([1]; male, 30 mg/kg, PO): 102 ± 30 min | AUC(0-inf) ([1]; male, 100 mg/kg, IV): 118000 ± 13600 ng·h/mL | AUC(0-t) ([1]; male, 100 mg/kg, IV): 118000 ± 13600 ng·h/mL | Tmax ([1]; male, 100 mg/kg, IV): 60 min | half-life ([1]; male, 100 mg/kg, IV): 272 ± 7.2 min | clearance ([1]; male, 100 mg/kg, IV): 14.2 mL/min/kg | AUC(0-inf) ([1]; male, 100 mg/kg, PO): 14400 ± 4600 ng·h/mL | Cmax ([1]; male, 100 mg/kg, PO): 9790 ± 1100 ng/mL | Tmax ([1]; male, 100 mg/kg, PO): 19.8 ± 8.4 min | half-life ([1]; male, 100 mg/kg, PO): 319 ± 126 min | AUC(0-inf) ([1]; male, 150 mg/kg, IV): 172000 ± 10700 ng·h/mL | AUC(0-t) ([1]; male, 150 mg/kg, IV): 172000 ± 10800 ng·h/mL | Tmax ([1]; male, 150 mg/kg, IV): 120 min | half-life ([1]; male, 150 mg/kg, IV): 254 ± 40.2 min | clearance ([1]; male, 150 mg/kg, IV): 14.5 mL/min/kg | AUC(0-inf) ([1]; male, 300 mg/kg, PO): 27200 ± 17500 ng·h/mL | Cmax ([1]; male, 300 mg/kg, PO): 11100 ± 3100 ng/mL | Tmax ([1]; male, 300 mg/kg, PO): 60 min | half-life ([1]; male, 300 mg/kg, PO): 132 min | MIC (P. aurigenosa ATCC 27853): 0.5 µg/mL (≈ 1.03 µM) | MIC (E. coli ATCC 25922): 0.03 µg/mL (≈ 0.0619 µM) | MIC (S. aureus ATCC 29213): ≤ 0.015 µg/mL | MIC [2]: 0.125 µg/mL (≈ 0.258 µM) | MIC (K. pneumoniae ATCC 13883): 0.06 µg/mL (≈ 0.124 µM) | MIC [3]: ≤ 0.03 µg/mL | MIC [4]: 0.125 µg/mL (≈ 0.258 µM) | MIC [5]: 0.125 µg/mL (≈ 0.258 µM) | MIC (A. baumannii ATCC 19606): 0.06 µg/mL (≈ 0.124 µM) | MIC (E. faecalis ATCC 29212): 0.06 µg/mL (≈ 0.124 µM) | MIC50 ([6]; Aba clinical strains): 0.06 µg/mL (≈ 0.124 µM) | MIC90 ([6]; Aba clinical strains): 0.25 µg/mL (≈ 0.516 µM) | Minimum (MIC) ([6]; Aba clinical strains, MIC50/MIC90 in μg/ml, in µg/mL): 0.03 | MIC ATCC19606 ([6]; Aba reference strain ATCC19606, MIC50/MIC90 in μg/ml): 0.06 µg/mL (≈ 0.124 µM) | Minimum (MIC) (E. coli clinical strains; E. coli clinical strains, MIC50/MIC90 in μg/ml): 0.03 µg/mL | MIC ATCC25922 (E. coli clinical strains; E. coli reference strain ATCC25922, MIC50/MIC90 in μg/ml): 0.03 µg/mL (≈ 0.0619 µM) | MIC50 (E. coli clinical strains; [9]): 0.25 µg/mL (≈ 0.516 µM) | MIC90 (E. coli clinical strains; [9]): 0.25 µg/mL (≈ 0.516 µM) | Minimum (MIC) ([7]; MIC50/MIC90 in μg/ml): 0.03 µg/mL | MIC50 ([7]; Enterobacter cloacae): 0.125 µg/mL (≈ 0.258 µM) | MIC90 ([7]; Enterobacter cloacae): 0.25 µg/mL (≈ 0.516 µM) | MIC50 ([8]; Pae clinical strains): 1 µg/mL (≈ 2.06 µM) | MIC90 ([8]; Pae clinical strains): 1 µg/mL (≈ 2.06 µM) | Minimum (MIC) ([8]; Pae clinical strains, MIC50/MIC90 in μg/ml): 0.031 µg/mL | MIC ATCC27853 ([8]; Pae reference strain ATCC27853, MIC50/MIC90 in μg/ml): 0.5 µg/mL (≈ 1.03 µM)
